# Measurements published in patent publication US7138361B2, “Herbicidal heterocycles” (E. I. du Pont de Nemours and Company, priority 2000, dated 2006).
# How the values were obtained:
# Assay type in all cases: in vivo
# [1] = test system: smallflower flatsedge (Cyperus difformis); assay: Test C flooded paddy test; conditions: for Flatsedge plant response rating: Flooded Paddy, scale 0 to 100, 0 no effect, 100 complete control; for Plant response rating, Flatsedge: flooded paddy test, scale 0 to 100 (0 no effect, 100 complete control)
# Protocol: (§1) At the same time, plants selected from these crop and weed species and also winter barley (Hordeum vulgare), blackgrass (Alopecurus myosuroides), canary grass (Phalaris minor), chickweed (Stellaria media), downy brome (Bromus tectorum), green foxtail (Setaria viridis), Italian ryegrass (Lolium multiflorum), wheat (Triticum aestivum), wild oat (Avena fatua) and windgrass (Apera spica-venti) were treated with postemergence applications of some of the test chemicals formulated in the same manner. Plants ranged in height from 2 to 18 cm (1- to 4-leaf stage) for postemergence treatments. Plant species in the flooded paddy test consisted of rice (Oryza saliva), smallflower flatsedge (Cyperus difformis), duck salad (Heteranthera limosa) and barnyardgrass (Echinochloa crus-galli) grown to the 2-leaf stage for testing. Treated plants and controls were maintained in a greenhouse for 12 to 14 days, after which time all species were compared to controls and visually evaluated. Plant response ratings, summarized in Table C, are based on a scale of 0 to 100 where 0 is no effect and 100 is complete control. A dash (-) response means no test result.
# [2] = test system: rice (Oryza saliva); assay: Test C flooded paddy test; conditions: for Rice plant response rating: Flooded Paddy, scale 0 to 100, 0 no effect, 100 complete control; for Plant response rating, Rice: flooded paddy test, scale 0 to 100 (0 no effect, 100 complete control)
# Protocol: as §1
# [3] = test system: duck salad (Heteranthera limosa); assay: Test C flooded paddy test; conditions: for Ducksalad plant response rating: Flooded Paddy, scale 0 to 100, 0 no effect, 100 complete control; for Plant response rating, Ducksalad: flooded paddy test, scale 0 to 100 (0 no effect, 100 complete control)
# Protocol: as §1
# [4] = test system: barnyardgrass (Echinochloa crus-galli); assay: Test C flooded paddy test; conditions: for Barnyardgrass plant response rating: Flooded Paddy, scale 0 to 100, 0 no effect, 100 complete control; for Plant response rating, Barnyardgrass: flooded paddy test, scale 0 to 100 (0 no effect, 100 complete control)
# Protocol: as §1
# [5] = test system: crabgrass (Digitaria sanguinalis); assay: Test B postemergence; conditions: 13 to 15 days
# Source text: (§2) Seeds selected from barnyardgrass (Echinochloa crus-galli), Surinam grass (Brachiaria decumbens), cocklebur (Xanthium strumarium), corn (Zea mays), crabgrass (Digitaria sanguinalis), giant foxtail (Setaria faberii), lambsquarters (Chenopodium album), morning glory (Ipomoea hederacea), pigweed (Amaranthus retroflexus), rice (Oryza saliva) and velvetleaf (Abutilon theophrasti) were planted and treated preemergence with test chemicals formulated in a non-phytotoxic solvent mixture which included a surfactant.
# (§3) At the same time, plants selected from these crop and weed species and also blackgrass (Alopecurus myosuroides), wheat (Triticum aestivum) and wild oat (Avena fatua) were treated with postemergence applications of test chemicals formulated in the same manner. Plants ranged in height from 2 to 18 cm (1- to 4-leaf stage) for postemergence treatments. Plant species in the flooded paddy test consisted of rice (Oryza saliva), smallflower flatsedge (Cyperus difformis), duck salad (Heteranthera limosa) and barnyardgrass (Echinochloa crus-galli) grown to the 2-leaf stage for testing. Treated plants and controls were maintained in a greenhouse for 13 to 15 days, after which time all species were compared to controls and visually evaluated. Plant response ratings, summarized in Table B, are based on a scale of 0 to 100 where 0 is no effect and 100 is complete control. A dash (-) response means no test result.
# [6] = test system: corn (Zea mays); assay: Test B postemergence; conditions: 13 to 15 days
# Source text: as §2, §3
# [7] = test system: giant foxtail (Setaria faberii); assay: Test B postemergence; conditions: 13 to 15 days
# Source text: as §2, §3
# [8] = test system: pigweed (Amaranthus retroflexus); assay: Test B postemergence; conditions: Rate 500 g/ha, scale 0 to 100, 0 is no effect, 100 is complete control, 13 to 15 days
# Source text: as §2, §3
# [9] = test system: wheat (Triticum aestivum); assay: Test B postemergence; conditions: Rate 500 g/ha, scale 0 to 100, 0 is no effect, 100 is complete control, 13 to 15 days
# Source text: as §2, §3
# [10] = test system: wild oat (Avena fatua); assay: Test B postemergence; conditions: Rate 500 g/ha, scale 0 to 100, 0 is no effect, 100 is complete control, 13 to 15 days
# Source text: as §2, §3
# [11] = test system: blackgrass (Alopecurus myosuroides); assay: Test B postemergence; conditions: 13 to 15 days
# Source text: as §2, §3
# [12] = test system: Surinam grass (Brachiaria decumbens); assay: Test B postemergence; conditions: 13 to 15 days
# Source text: as §2, §3
# [13] = test system: lambsquarters (Chenopodium album); assay: Test B postemergence; conditions: Rate 500 g/ha, scale 0 to 100, 0 is no effect, 100 is complete control, 13 to 15 days
# Source text: as §2, §3
# [14] = test system: barnyardgrass (Echinochloa crus-galli); assay: Test B postemergence; conditions: 13 to 15 days
# Source text: as §2, §3
# [15] = test system: velvetleaf (Abutilon theophrasti); assay: Test B postemergence; conditions: Rate 500 g/ha, scale 0 to 100, 0 is no effect, 100 is complete control, 13 to 15 days
# Source text: as §2, §3
# [16] = test system: morning glory (Ipomoea hederacea); assay: Test B postemergence; conditions: Rate 500 g/ha, scale 0 to 100, 0 is no effect, 100 is complete control, 13 to 15 days
# Source text: as §2, §3
# [17] = test system: crabgrass (Digitaria sanguinalis); assay: Test B preemergence
# Source text: as §2, §3
# [18] = test system: corn (Zea mays); assay: Test B preemergence
# Source text: as §2, §3
# [19] = test system: giant foxtail (Setaria faberii); assay: Test B preemergence
# Source text: as §2, §3
# [20] = test system: pigweed (Amaranthus retroflexus); assay: Test B preemergence
# Source text: as §2, §3
# [21] = test system: rice (Oryza saliva); assay: Test B preemergence
# Source text: as §2, §3
# [22] = test system: Surinam grass (Brachiaria decumbens); assay: Test B preemergence
# Source text: as §2, §3
# [23] = test system: cocklebur (Xanthium strumarium); assay: Test B preemergence
# Source text: as §2, §3
# [24] = test system: lambsquarters (Chenopodium album); assay: Test B preemergence
# Source text: as §2, §3
# [25] = test system: barnyardgrass (Echinochloa crus-galli); assay: Test B preemergence
# Source text: as §2, §3
# [26] = test system: velvetleaf (Abutilon theophrasti); assay: Test B preemergence
# Source text: as §2, §3
# [27] = test system: morning glory (Ipomoea hederacea); assay: Test B preemergence
# Source text: as §2, §3
# [28] = Rate 125 g/ha, scale 0 (no effect) to 100 (complete control)
# [29] = Rate 500 g/ha, scale 0 to 100, 0 is no effect, 100 is complete control
# [30] = Preemergence, Rate 500 g/ha, scale 0 to 100, 0 no effect, 100 complete control
# [31] = preemergence, Rate 125 g/ha, scale of 0 to 100 where 0 is no effect and 100 is complete control, 13 to 15 days
structure (smiles),measurement,setting,value
CCCCC(C)c1ccn(C2SCN(c3cccc(C(F)(F)F)c3)C2=O)n1 (stereo not drawn) [Compound 103],Flatsedge plant response rating,[1]; Rate 250 g/ha,100
same,Flatsedge plant response rating,[1]; Rate 500 g/ha,100
same,"Plant response rating, Flatsedge",[1]; Rate 62 g/ha,0
same,"Plant response rating, Flatsedge",[1]; Rate 125 g/ha,80
same,Rice plant response rating,[2]; Rate 250 g/ha,20
same,Rice plant response rating,[2]; Rate 500 g/ha,20
same,"Plant response rating, Rice",[2]; Rate 62 g/ha,0
same,Ducksalad plant response rating,[3]; Rate 250 g/ha,0
same,Ducksalad plant response rating,[3]; Rate 500 g/ha,90
same,"Plant response rating, Ducksalad",[3]; Rate 62 g/ha,0
same,"Plant response rating, Ducksalad",[3]; Rate 125 g/ha,0
same,Barnyardgrass plant response rating,[4]; Rate 250 g/ha,20
same,Barnyardgrass plant response rating,[4]; Rate 500 g/ha,40
same,"Plant response rating, Barnyardgrass",[4]; Rate 62 g/ha,0
same,"Plant response rating, Barnyardgrass",[4]; Rate 125 g/ha,0
same,"Plant response rating, Crabgrass",[5]; [28],0
same,"Plant response rating, Crabgrass",[5]; [29],0
same,"Plant response rating, Corn",[6]; [28],0
same,"Plant response rating, Corn",[6]; [29],0
same,"Plant response rating, Foxtail, Giant",[7]; [28],0
same,"Plant response rating, Foxtail, Giant",[7]; [29],0
same,"Plant response rating, Pigweed",[8],0
same,"Plant response rating, Wheat",[9],0
same,"Plant response rating, Wild Oat",[10],0
same,"Plant response rating, Blackgrass",[11]; [28],0
same,"Plant response rating, Blackgrass",[11]; [29],0
same,"Plant response rating, Surinam grass",[12]; [28],0
same,"Plant response rating, Surinam grass",[12]; [29],0
same,"Plant response rating, Lambsquarters",[13],50
same,"Plant response rating, Barnyardgrass",[14]; [28],0
same,"Plant response rating, Barnyardgrass",[14]; [29],0
same,"Plant response rating, Velvetleaf",[15],0
same,"Plant response rating, Morningglory",[16],0
same,"Plant response rating, Crabgrass",[17]; [30],60
same,"Plant response rating, Crabgrass",[17]; [31],0
same,"Plant response rating, Corn",[18]; [30],0
same,"Plant response rating, Corn",[18]; [31],0
same,"Plant response rating, Foxtail, Giant",[19]; [30],0
same,"Plant response rating, Foxtail, Giant",[19]; [31],0
same,"Plant response rating, Pigweed",[20]; [30],0
same,"Plant response rating, Pigweed",[20]; [31],0
same,"Plant response rating, Rice",[21]; [30],0
same,"Plant response rating, Rice",[21]; [31],0
same,"Plant response rating, Surinam grass",[22]; [30],0
same,"Plant response rating, Surinam grass",[22]; [31],0
same,"Plant response rating, Cocklebur",[23]; [30],0
same,"Plant response rating, Cocklebur",[23]; [31],0
same,"Plant response rating, Lambsquarters",[24]; [30],100
same,"Plant response rating, Lambsquarters",[24]; [31],100
same,"Plant response rating, Barnyardgrass",[25]; [30],0
same,"Plant response rating, Barnyardgrass",[25]; [31],0
same,"Plant response rating, Velvetleaf",[26]; [30],0
same,"Plant response rating, Velvetleaf",[26]; [31],0
same,"Plant response rating, Morningglory",[27]; [30],0
same,"Plant response rating, Morningglory",[27]; [31],0
CC(C)(C)c1ccn(C2CCN(c3ccc4c(c3)CCC4)C2=O)n1 (stereo not drawn) [Compound 105],Flatsedge plant response rating,[1]; Rate 250 g/ha,90
same,Flatsedge plant response rating,[1]; Rate 500 g/ha,90
same,"Plant response rating, Flatsedge",[1]; Rate 62 g/ha,40
same,"Plant response rating, Flatsedge",[1]; Rate 125 g/ha,90
same,Rice plant response rating,[2]; Rate 250 g/ha,20
same,Rice plant response rating,[2]; Rate 500 g/ha,30
same,"Plant response rating, Rice",[2]; Rate 62 g/ha,0
same,"Plant response rating, Rice",[2]; Rate 125 g/ha,0
same,Ducksalad plant response rating,[3]; Rate 250 g/ha,0
same,Ducksalad plant response rating,[3]; Rate 500 g/ha,0
same,"Plant response rating, Ducksalad",[3]; Rate 62 g/ha,0
same,"Plant response rating, Ducksalad",[3]; Rate 125 g/ha,0
same,Barnyardgrass plant response rating,[4]; Rate 250 g/ha,20
same,Barnyardgrass plant response rating,[4]; Rate 500 g/ha,60
same,"Plant response rating, Barnyardgrass",[4]; Rate 62 g/ha,0
same,"Plant response rating, Barnyardgrass",[4]; Rate 125 g/ha,0
same,"Plant response rating, Crabgrass",[5]; [28],0
same,"Plant response rating, Crabgrass",[5]; [29],0
same,"Plant response rating, Corn",[6]; [28],0
same,"Plant response rating, Corn",[6]; [29],0
same,"Plant response rating, Foxtail, Giant",[7]; [28],0
same,"Plant response rating, Foxtail, Giant",[7]; [29],0
same,"Plant response rating, Pigweed",[8],0
same,"Plant response rating, Wheat",[9],0
same,"Plant response rating, Wild Oat",[10],0
same,"Plant response rating, Blackgrass",[11]; [28],0
same,"Plant response rating, Blackgrass",[11]; [29],0
same,"Plant response rating, Surinam grass",[12]; [28],0
same,"Plant response rating, Surinam grass",[12]; [29],0
same,"Plant response rating, Lambsquarters",[13],0
same,"Plant response rating, Barnyardgrass",[14]; [28],0
same,"Plant response rating, Barnyardgrass",[14]; [29],0
same,"Plant response rating, Velvetleaf",[15],0
same,"Plant response rating, Morningglory",[16],0
same,"Plant response rating, Crabgrass",[17]; [30],30
same,"Plant response rating, Crabgrass",[17]; [31],0
same,"Plant response rating, Corn",[18]; [30],0
same,"Plant response rating, Corn",[18]; [31],0
same,"Plant response rating, Foxtail, Giant",[19]; [30],20
same,"Plant response rating, Foxtail, Giant",[19]; [31],0
same,"Plant response rating, Pigweed",[20]; [30],100
same,"Plant response rating, Pigweed",[20]; [31],0
same,"Plant response rating, Rice",[21]; [30],0
same,"Plant response rating, Rice",[21]; [31],0
same,"Plant response rating, Surinam grass",[22]; [30],0
same,"Plant response rating, Surinam grass",[22]; [31],0
same,"Plant response rating, Cocklebur",[23]; [30],0
same,"Plant response rating, Cocklebur",[23]; [31],0
same,"Plant response rating, Lambsquarters",[24]; [30],100
same,"Plant response rating, Lambsquarters",[24]; [31],60
same,"Plant response rating, Barnyardgrass",[25]; [30],0
same,"Plant response rating, Barnyardgrass",[25]; [31],0
same,"Plant response rating, Velvetleaf",[26]; [30],0
same,"Plant response rating, Velvetleaf",[26]; [31],0
same,"Plant response rating, Morningglory",[27]; [30],0
same,"Plant response rating, Morningglory",[27]; [31],0
